Patent US20070149779A1, “PRIMIDONE PROCESS AND COMPOSITIONS” (priority 2005, published 2007)
Converted amounts (≈) assume the structure as drawn.

How the values were obtained:
[1] = Bulk density, tapped density and Carr index of primidone and primidone granules; format: physicochemical; settings: for Carr Index: percent compressibility from tapped and bulk density
Description: “Carr index” as used herein is defined as the percent compressibility, that is a percentage ratio of the difference between tapped bulk density and initial bulk density to tapped bulk density.

[2] = cited from earlier work

SMILES | Bulk Density, (Db) [1] | Tapped density (Dt) [1] | Carr Index [1] | solubility in water [2]
CCC1(c2ccccc2)C(=O)NCNC1=O [Primidone Particle size D90 7.1 μm] | 0.221 g/mL | 0.307 g/mL | 28% | –
CCC1(c2ccccc2)C(=O)NCNC1=O [Primidone Particle size D90 307 μm] | 0.850 g/mL | 0.905 g/mL | 6.1% | –
CCC1(c2ccccc2)C(=O)NCNC1=O [Primidone, 5-ethyldihydro-5-phenyl-4,6 (1H, 5H pyrimidinedione)] | – | – | – | 0.6 mg/mL (≈ 2750 µM)
